In patent US4167570A, “2-Methyl-6-alkyl-11-aminoalkyl-6,11-dihydro-5H-pyrido(2,3-B)(1,5)benzodia zepin-5-ones and salts thereof” (Boehringer Ingelheim GmbH, priority 1976, dated 1979):
Where a name gives a salt, the structure may show the parent alone.

Key:
[1] = tested on: bronchial secretion in guinea pigs; assay: expectorant (bronchosecretolytic) activity, increase in bronchial secretion in anesthetized guinea pigs, peroral administration (Perry & Boyd, modified by Engelhorn & Puschmann); format: in vivo; settings: two-hour period, vs untreated controls, male guinea pigs
Description: (§1) The bronchosecretolytic activity and the intravenous acute toxicity of the compounds of this invention and of certain related 2-unsubstituted analogs disclosed in German Offenlegungsschrift No. 2,424,811 were ascertained by the standard test methods described below.
The tests for expectorant activity were carried out according to the method of PERRY, W. and BOYD, E.M.; J. Pharmacol. exp. Therap. 73, 65 (1941), as modified by ENGELHORN, R. and PUSCHMANN, S.; Arzneimittel Forsch. 21, 1045 (1971), on male guinea pigs with a body weight of 450 to 550 gm, which were anesthetized by i.p.-administration of a * 25% urethane solution (1,0 g/kg). The substances were administered perorally at the indicated dosages levels, each in 2 ml of distilled water, by means of an esophageal tube. 5 tests were carried out per dosage. The increase in bronchial secretion was calculated from the amount secreted within a two-hour period after administration of the test compound in comparison with the values obtained from untreated control animals, also within a two-hour period.

[2] = acute toxicity, LD50 in the mouse after intravenous administration; settings: in vivo, i.v., NMRI-mice both sexes, deaths within 14 days, Litchfield and Wilcoxon
Description: as §1
The acute toxicity was tested in NMRI-mice of both sexes having a body weight of 20 gm after intravenous administration. 0.1 ml of an aqueous 0.9% sodium chloride solution/10 gm of animal was used as a vehicle. The LD50 was calculated according to LITCHFIELD and WILCOXON from the percentage of the animals which died within 14 days after administration of various dosages.

Row | SMILES | Average percentage change in amount of bronchial secretion in guinea pigs ([1]; 0.005 μg/kg per os) | Average percentage change in amount of bronchial secretion in guinea pigs ([1]; 0.05 μg/kg per os) | LD50 at 336 h [2] [mg/kg] | Average percentage change in amount of bronchial secretion in guinea pigs ([1]; 0.5 μg/kg per os)
1 | CCN(CC)CCCN1c2ccccc2N(C)C(=O)c2ccc(C)nc21.Cl [A, 11-(3-Diethylamino-propyl)-6,11-dihydro-2,6-dimethyl-5H-pyrido[2,3-b][1,5]benzodiazepin-5-one hydrochloride] | +44% | +100% | 15.4 | –
2 | CCN(CC)CCCN1c2cc(C)c(C)cc2N(C)C(=O)c2ccc(C)nc21.O=C(O)/C=C/C(=O)O [B, 11-(3-Diethylamino-propyl)-6,11-dihydro-2,6,8,9-tetramethyl-5H-pyrido[2,3-b][1,5]benzodiazepin-5-one hydrogen fumarate] | +44% | +83% | 9.9 | –
3 | CCN(CC)CCCN1c2ccccc2N(C)C(=O)c2cccnc21.Cl [X, 11-(3-Diethylamino-propyl)-6,11-dihydro-6-methyl-5H-pyrido[2,3-b][1,5]benzodiazepin-5-one hydrochloride] | +0% | +13% | – | +80%
4 | CCN(CCCN1c2ccccc2N(C)C(=O)c2cccnc21)C(C)C [Y, 11-[3-N-ethyl-N-isopropyl-amino)-propyl]-6,11-dihydro-6-methyl-5H-pyrido[2,3-b][1,5]benzodiazepin-5-one hydrochloride] | – | +10% | 30 | –
5 | CC(C)N(CCCN1c2ccccc2N(C)C(=O)c2cccnc21)C(C)C.Cl [Z, 6,11-Dihydro-11-(3-diisopropylamino-propyl)-6-methyl-5H-pyrido[2,3-b][1,5]benzodiazepin-5-one hydrochloride] | – | +27% | – | –
